From US20210161902A1, “EPICHAPEROME INHIBITOR THERAPY FOR TRAUMATIC BRAIN INJURY AND SEQUELAE THEREOF” (Samus Therapeutics, Inc, priority 2017, published 2021)
pEC50: −log10 of the molar value.

Molecular target: Hsp90 such as brain Hsp90
Test: EC50 for binding to Hsp90 such as brain Hsp90
Conditions: concentration yielding half-maximal binding to Hsp90 such as brain Hsp90, or halving binding in a competition assay
Source text: Brain uptake may be indicative of binding of the epichaperome inhibitor to Hsp90 and preferably to brain Hsp90. Such binding assays may be carried out as described in published PCT application WO2008/005937.
BBB-permeable epichaperome inhibitors to be used in the methods provided herein may be further characterized by their EC50 for binding to Hsp90 such as brain Hsp90. (EC50, in this context, refers to the concentration of the inhibitor that yields half-maximal binding of the inhibitor to Hsp90 such as brain Hsp90, or alternatively if the measurement is performed in a competition assay it is the concentration of inhibitor at which the binding to Hsp90 is reduced by half.) Certain inhibitors may have an EC50 of 100 nM or less, including about 90 nM, about 80 nM, about 85 nM, about 70 nM, about 60 nM, about 50 nM, about 40 nM, about 30 nM, about 20 nM, about 10 nM, about 9 nM, about 8 nM, about 7 nM, about 6 nM, about 5 nM, about 4 nM, about 3 nM, about 2 nM, or about 1 nM. The EC50 might range from 0.1 to 10 nM, from 0.1 to 9 nM, from 0.1 to 8 nM, from 0.1 to 7 nM, from 0.1 to 6 nM, or from 0.1 to 5 nM. The EC50 might range from 0.1 to 20 nM, from 0.1 to 18 nM, from 0.1 to 15 nM, from 0.1 to 12 nM, or from 0.1 to 10 nM. In some instances, certain inhibitors have an EC50 of about 5-7 nM. […] In other instances, certain inhibitors have an EC50 of about 80-90 nM.

CC(C)(C)CNCCn1c(Sc2cc3c(cc2I)OCO3)nc2c(N)ncnc21 [Compound 1]
pEC50: 8.16
